# Reference: US20040171089A1, “High-throughput screening assay for identifying substances capable of modulating cell survival and/or proliferation” (priority 2001, published 2004)
# How the values were obtained:
# sigma-1 sites = sigma-1 sites (Homo sapiens, UniProt Q99720); settings: Whittemore et al 1997; read-out: inhibition constant for sigma-1 sites; cited from earlier work
# PKB/Akt = experiment: PKB immunoprecipitation activity assay in MDA MB 468 cells; format: cell-based, human
# Experimental: All cells received 1% DMSOvehiclefor the duration of stimulation. […] Data pointsshown are the mean PKB activity relative to vehicle treated cells from three independently treated dishes of cells with error barsindicating the standard deviation. As controls, cells were treatedwith the PI 3-kinase inhibitor wortmannin for 30 minutes orstimulated with serum for 5 minutes; and
# MDA MB 468 cells were exposed to the sigma antagonist IPAG at 100 μM and 10 μM concentrations for periods of time up to 4 hours. At intervals, cells were lysed and then subjected to PKB immunoprecipitation, precisely as has been described previously (Leslie et al., 2001, Biochemical Journal, Vol 357 p427). This method, which is recognised in the art, provides a quantitative measure of PKB activity. FIG. 5c depicts a concentration- and time-dependent decline in PKB activity when cells were exposed to IPAG.
# [1] = tested on: cerebellar granule neurones; experiment: Fura-2 calcium imaging, cerebellar granule neurones; format: cell-based, rat; settings: 3 μM; cerebellar granule cells
# Experimental: Cerebellar granule cells were prepared from 6-7 day post natal rats as previously described (see Courtney, M. J., Lambert, J. J. and Nicholls, D. G. [1990] J. Neuroscience 10: 3873-3879).
# (§1) For calcium imaging experiments cells were plated onto poly-L-lysine coated coverslips (13 mm). Single cell imaging was performed utilizing a MiraCal Imaging facility (Life Science Resources, Cambridge, U.K.) with a Nikon Diaphot-TMD inverted epifluorescence microscope equipped with a ×40 oil immersion objective and Sutter filter wheel. The imager was equipped with a Lambert intensifier 1187 (Life Sciences Resources) providing a ×30 enhancement of the fluorescent signal, thus limiting phototoxicity.
# Fura-2 acetoxymethyl ester (fura-2 AM) incubations with the cells were performed at 37° C. in a medium containing (in mM): 120 NaCl, 3.5 KCl, 0.4 KH2PO4, 5 NaHCO3, 1.2 Na2SO4, 15 glucose, 1.2 MgCl2, 1 CaCl2, and 20 TES [N-tris(hydroxymethyl) methyl-2-aminoethane sulphonic acid] pH adjusted to 7.4 with NaOH. […] Cells were then illuminated alternately at 340 and 380 nm with the emitted 505 nm light being detected by a photomultiplier. […] Changes of intracellular calcium were quantified as the percentage increase of the fluorescent ratio (determined at ˜505 nm) obtained by exciting the test cells alternatively at 340 nm (optimal for calcium bound dye) and 380 nm.
# adult dermal fibroblasts = experiment: MTS cell viability/proliferation assay, adult dermal fibroblasts; format: cell-based, human; settings: 1-10 μM
# Experimental: This was carried out using an MTS assay (reagents from Promega Corporation, Madison Wis., USA) which is a modification of the MTT assay (as described in Jacobson et al, 1994 EMBO J Vol 13 pp1899-1910). The assay depends on conversion of the MTS tetrazolium compound to a coloured formazan product in metabolically active cells; it is therefore an assay of viable cell number. A decline in values implies cell killing as long as cell disappearance by apoptosis in untreated cell populations is absent or negligible (as with most healthy primary cell populations).
# Cells were seeded in the range 1.5×10^5-1.8×10^5 cells per ml of culture medium in 96 well microtitre plates and allowed to attach in a humidifed atmosphere of 5% CO2 in air at 37 deg C. Drugs were added 18-24 hours later and cell viability/proliferation measured at time intervals up to 48-72 hours post-drug addition when the experiment was terminated. Mean (±SE) values at each time point were obtained from wells in triplicate.
# Cell viability was measured as follows: 20 μl of MTS solution (Promega) was added to wells and incubated at 37 deg C. for 3 hours during which time a coloured formazan product is generated in viable cells. […] Viable cell number was then measured by reading absorbance at 490 nm in a Dynex microtitre plate reader. […]
# phospholipase C = experiment: Quantitative HPLC assay of inositol phosphates (IP3 levels) in MDA MB 468 cells; format: cell-based, human; settings: [3H] inositol labelled cells
# Source text: The PH domain of PLC delta 1 has a higher affinity for the phosphoinositide IP3 compared to PIP2. IP3 is produced from PIP2 in response to activation of PLC. Since PIP2 is membrane-bound whereas IP3 is cytosolic, the activation of PLC can be visualised in living cells by the relocalisation of GFP-PH PLC delta 1 from membrane to cytosol. A proviso to this interpretation is that, in conditions where PIP2 levels decline relative to IP3, the net effect would be relocalisation of GFP-PH PLC delta 1 from membrane to cytosol. Thus, to exclude this possibility, quantitative phospholipid assays were performed. (In this analysis, cells were labelled with [^3H] inositol in inositol-free DMEM (In Vitrogen—Gibco) with dialysed FBS for 48 hours before exposure to sigma ligands. Cells were then lysed and subjected to quantitative HPLC assay). These assays confirmed that IP3 levels had risen in cells exposed to sigma antagonists (IP3 levels had risen to 240% and 166% of the level prior to provision of the test substance in response to IPAG and rimcazole respectively) but had not risen in cells exposed to sigma-1 or sigma-2 agonists. This confirmed activation of PLC by sigma antagonists.
# MDA MB 468 cells = experiment: Fura-2 calcium imaging, MDA MB 468 cells; format: cell-based, human; settings: for % increase of cytosolic calcium / % increase of cytosolic calcium (peak 340/380 nm fura-2 ratio): MDA 468 cells
# Experimental: Human mammary carcinoma (MDA MB 468) cells were obtained from ATCC, Manassas, Va., USA; catalogue number HTB-132; cells were grown in accordance with the manufacturer's instructions.
# as §1
# Fura-2 acetoxymethyl ester (fura-2 AM) incubations with the cells were performed at 37° C. in a medium containing (in mM): 120 NaCl, 3.5 KCl, 0.4 KH2PO4, 5 NaHCO3, 1.2 Na2SO4, 15 glucose, 1.2 MgCl2, 1 CaCl2, and 20 TES [N-tris(hydroxymethyl) methyl-2-aminoethane sulphonic acid] pH adjusted to 7.4 with NaOH. Typically cells were incubated in 3 μM fura-2 AM for 25 min., which permitted sufficient accumulation of free fura-2 in the cell cytoplasm. Cells were then illuminated alternately at 340 and 380 nm with the emitted 505 nm light being detected by a photomultiplier. Free fura emits maximally when excited at 380 nm, whilst the calcium bound fura has a maximal emission when excited at 340 nm. Thus the ratio of emission when alternately excited at 340/380 nm is a measure of the calcium concentration in equilibrium with the chelator. Changes of intracellular calcium were quantified as the percentage increase of the fluorescent ratio (determined at ˜505 nm) obtained by exciting the test cells alternatively at 340 nm (optimal for calcium bound dye) and 380 nm.
# Sequence of sigma-1 sites (Q99720 whole entry): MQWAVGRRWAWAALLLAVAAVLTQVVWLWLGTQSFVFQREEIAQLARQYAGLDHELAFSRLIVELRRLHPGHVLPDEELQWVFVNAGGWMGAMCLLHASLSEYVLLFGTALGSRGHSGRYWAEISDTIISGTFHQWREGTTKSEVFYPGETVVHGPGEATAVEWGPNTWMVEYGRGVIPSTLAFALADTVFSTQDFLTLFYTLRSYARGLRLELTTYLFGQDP
compound,measurement,setting,value
"N=C(Nc1ccc(I)cc1)NC1C2CC3CC(C2)CC1C3 (stereo not shown) [IPAG, 1-(4-iodophenyl)-3-(2-adamantyl)guanidine]",Ki,sigma-1 sites,~2.8 nM
same,PKB activity,"PKB/Akt; 10 μM, up to 4 hours",later decline in PKB activity
same,PKB activity,"PKB/Akt; 100 μM, within 5 minutes, sustained to at least 30 minutes",profoundly inhibited PKB activity
same,% increase of cytosolic calcium (peak 340/380 nm fura-2 ratio),[1],20±2%
same,Cytotoxicity,adult dermal fibroblasts,not cytotoxic
same,"IP3 levels, % of the level prior to provision of the test substance",phospholipase C,240%
same,% increase of cytosolic calcium,"MDA MB 468 cells; 1 μM, 100 μM extracellular calcium",40±14%
same,% increase of cytosolic calcium,"MDA MB 468 cells; 1 μM, 1 mM extracellular calcium (FIG. 3a experiment)",157±10%
same,% increase of cytosolic calcium (peak 340/380 nm fura-2 ratio),MDA MB 468 cells; 1 μM,54±7%
same,% increase of cytosolic calcium,"MDA MB 468 cells; 1 μM, absence of extracellular calcium",1±0.4%
same,% increase of cytosolic calcium (peak 340/380 nm fura-2 ratio),MDA MB 468 cells; 3 μM,112±8%
same,% increase of cytosolic calcium,"MDA MB 468 cells; 10 μM, 100 μM extracellular calcium",237±12%
same,time of decline of intracellular calcium to baseline,"MDA MB 468 cells; 10 μM, 0.1 mM extracellular calcium, MDA MB 468 cells",≤ 10 min
same,% increase of cytosolic calcium,"MDA MB 468 cells; 10 μM, 1 mM extracellular calcium (FIG. 3a experiment)",230±12%
same,time calcium elevation remains close to peak levels,"MDA MB 468 cells; 10 μM, 1 mM extracellular calcium, MDA MB 468 cells",at least 30 minutes
same,% increase of cytosolic calcium (peak 340/380 nm fura-2 ratio),MDA MB 468 cells; 10 μM,125±7%
same,time to peak effect on cytosolic calcium,"MDA MB 468 cells; 10 μM, MDA MB 468 cells",≤ 5 min
same,% increase of cytosolic calcium,"MDA MB 468 cells; 10 μM, absence of extracellular calcium",4±2%
same,effect on cytosolic calcium levels (in words),"MDA MB 468 cells; MDA MB 468 cells, FIG. 2a: IPAG 1-10 μM, rimcazole 10-30 μM, (+)-SKF 10,047 10 μM, (+)-pentazocine 10-30 μM, ibogaine 10-50 μM",increase cytosolic calcium levels
